Measured values as given in publication PMC3805332, “Synthesis of α-Glucan in Mycobacteria Involves a Hetero-octameric Complex of Trehalose Synthase TreS and Maltokinase Pep2” (ACS Chemical Biology, 2013).

Experiments:
[1] = target: T1, M. smegmatis TreS (Mycolicibacterium smegmatis, UniProt A0R6E0); assay: hexokinase/pyruvate kinase/lactate dehydrogenase coupled NADH fluorescence; format: biochemical; details: hydrolysis to glucose; HEPES-NaOH pH 7.5, 1 mM MgCl2, trehalose 0-25 mM, TreS 0.4 μM
T1 construct: preparation of M. smegmatis TreS not described in main text
T1 sequence (A0R6E0 1-593): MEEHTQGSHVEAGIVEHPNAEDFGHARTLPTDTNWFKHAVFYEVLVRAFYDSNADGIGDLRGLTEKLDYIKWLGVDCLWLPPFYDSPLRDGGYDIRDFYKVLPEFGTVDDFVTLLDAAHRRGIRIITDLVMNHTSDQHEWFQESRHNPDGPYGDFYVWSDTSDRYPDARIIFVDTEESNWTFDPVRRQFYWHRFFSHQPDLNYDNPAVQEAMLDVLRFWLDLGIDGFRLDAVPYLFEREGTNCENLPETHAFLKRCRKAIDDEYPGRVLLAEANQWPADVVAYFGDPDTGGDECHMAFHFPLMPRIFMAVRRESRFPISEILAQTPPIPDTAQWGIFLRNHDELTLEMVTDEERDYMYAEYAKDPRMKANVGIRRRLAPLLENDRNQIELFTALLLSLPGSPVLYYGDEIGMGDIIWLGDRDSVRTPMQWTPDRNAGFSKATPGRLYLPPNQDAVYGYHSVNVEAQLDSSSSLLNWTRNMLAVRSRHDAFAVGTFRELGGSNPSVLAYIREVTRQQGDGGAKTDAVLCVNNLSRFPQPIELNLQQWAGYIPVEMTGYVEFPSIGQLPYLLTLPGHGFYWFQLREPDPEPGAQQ

[2] = target: TreS (trehalose synthase) (Mycobacterium tuberculosis, UniProt P9WQ19)
TreS (trehalose synthase), sequence (P9WQ19 whole entry): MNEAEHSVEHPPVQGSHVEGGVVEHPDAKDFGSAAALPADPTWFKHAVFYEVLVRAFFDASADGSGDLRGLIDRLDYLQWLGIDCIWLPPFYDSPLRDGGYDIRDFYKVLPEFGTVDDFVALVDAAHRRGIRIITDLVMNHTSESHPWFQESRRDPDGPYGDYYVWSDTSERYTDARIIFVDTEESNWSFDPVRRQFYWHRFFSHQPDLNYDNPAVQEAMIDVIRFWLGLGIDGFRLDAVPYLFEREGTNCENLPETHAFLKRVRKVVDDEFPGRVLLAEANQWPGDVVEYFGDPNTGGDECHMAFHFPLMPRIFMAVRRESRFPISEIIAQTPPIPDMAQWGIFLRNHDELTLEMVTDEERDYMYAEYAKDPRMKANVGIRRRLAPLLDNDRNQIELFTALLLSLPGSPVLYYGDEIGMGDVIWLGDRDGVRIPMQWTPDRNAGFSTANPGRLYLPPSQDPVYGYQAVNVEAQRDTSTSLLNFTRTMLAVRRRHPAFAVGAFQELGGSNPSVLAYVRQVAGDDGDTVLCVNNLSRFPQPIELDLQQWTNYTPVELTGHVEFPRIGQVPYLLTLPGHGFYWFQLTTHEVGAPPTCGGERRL

Row | Compound | hexokinase/pyruvate kinase/lactate dehydrogenase coupled NADH fluorescence [1] | end-point thin layer chromatography [2]
1 | OC[C@H]1O[C@H](O[C@H]2O[C@H](CO)[C@@H](O)[C@H](O)[C@H]2O)[C@H](O)[C@@H](O)[C@@H]1O [trehalose] | we monitored M. smegmatis TreS-catalyzed conversion of trehalose to glucose in an enzyme-coupled continuous assay | Incubation of TreS with trehalose or maltose interconverted the substrates
2 | OC[C@H]1O[C@H](O[C@H]2[C@H](O)[C@@H](O)C(O)O[C@@H]2CO)[C@H](O)[C@@H](O)[C@@H]1O (stereo partly drawn) [maltose] |  | Incubation of TreS with trehalose or maltose interconverted the substrates
